These results are taken from ChEMBL document CHEMBL4196112, “Design of Selective sPLA2-X Inhibitor (-)-2-{2-[Carbamoyl-6-(trifluoromethoxy)-1H-indol-1-yl]pyridine-2-yl}propanoic Acid” (ACS Med Chem Lett, 2018).

The target of series [1] is T1, Phospholipase A2, membrane associated (Homo sapiens, UniProt P14555).
T1 sequence (P14555 whole entry): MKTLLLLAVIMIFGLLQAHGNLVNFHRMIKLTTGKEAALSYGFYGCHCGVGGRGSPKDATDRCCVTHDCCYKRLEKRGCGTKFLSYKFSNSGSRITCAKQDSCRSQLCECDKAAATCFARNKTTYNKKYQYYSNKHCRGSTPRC
Briefly: Inhibition of sPLA2-2A (unknown origin) using 1-palmitoyl-2-oleoyl-sn-glycero-3-phosphocholine as substrate pretreated for 20 mins followed by substrate addition and measured after 60 mins by NEFA based assay.

Series [2] addresses T2, Group 10 secretory phospholipase A2 (Homo sapiens, UniProt O15496).
T2 sequence (O15496 whole entry): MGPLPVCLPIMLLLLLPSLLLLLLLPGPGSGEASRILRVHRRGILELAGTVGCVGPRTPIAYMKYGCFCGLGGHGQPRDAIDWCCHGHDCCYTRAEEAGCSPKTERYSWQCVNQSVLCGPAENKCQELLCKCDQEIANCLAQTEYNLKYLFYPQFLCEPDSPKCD
The experiment in a line: Inhibition of sPLA2-10 (unknown origin) using 1-palmitoyl-2-oleoyl-sn-glycero-3-phosphocholine as substrate pretreated for 20 mins followed by substrate addition and measured after 60 mins by NEFA based assay.

Another series deals with T3, Phospholipase A2 group V (Homo sapiens, UniProt P39877).
T3 sequence (P39877 whole entry): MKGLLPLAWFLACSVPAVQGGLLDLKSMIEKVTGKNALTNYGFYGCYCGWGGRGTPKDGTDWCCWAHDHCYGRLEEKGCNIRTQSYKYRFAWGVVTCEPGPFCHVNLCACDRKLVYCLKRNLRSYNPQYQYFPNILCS
Briefly: Inhibition of sPLA2-5 (unknown origin) using 1-palmitoyl-2-oleoyl-sn-glycero-3-phosphocholine as substrate pretreated for 20 mins followed by substrate addition and measured after 60 mins by NEFA based assay.

The target in series [3] is T2, Group 10 secretory phospholipase A2. Briefly: Inhibition of recombinant human sPLA2-10 using human HDL as substrate pretreated for 20 mins followed by substrate addition and measured after 60 mins by NEFA based assay.
Series [4] has as its target T4, Phospholipase A2 group V (Homo sapiens) (UniProt P39877).
T4 sequence (whole entry): T3 sequence (P39877 whole entry)
Briefly: Inhibition of sPLA2-5 (unknown origin) at 10 uM using 1-palmitoyl-2-oleoyl-sn-glycero-3-phosphocholine as substrate pretreated for 20 mins followed by substrate addition and measured after 60 mins by NEFA based assay.

For series [5], the species on record is Homo sapiens. Briefly: Selectivity ratio of IC50 for sPLA2-5 (unknown origin) to IC50 for sPLA2-10 (unknown origin).
Another series deals with Mus musculus. The experiment in a line: Unbound clearance in C57Bl/6J mouse administered iv or po. The series is classed as ADME, organism-based. The conditions noted are these: in vivo.
The species entered for series [6] is Homo sapiens. Briefly: Selectivity ratio of IC50 for sPLA2-2A (unknown origin) to IC50 for sPLA2-10 (unknown origin).
A short description of series [7]: Lipophilicity, log D of compound at pH 7.4. To be noted: buffer.
Series [8] is described as follows: Intrinsic clearance in human hepatocytes assessed per million cells. To be noted: read-out: CLH. It counts as ADME, cell-based, Hepatocyte.

Active and inactive are the calls of the source. No cut-off for these calls is given here.

In general, IC50 refers to the midpoint of a concentration-inhibition curve. In the case of `COC(Cc1cccc(-n2c(C(N)=O)cc3ccc(OC(F)(F)F)cc32)c1)C(=O)O` (stereo in doubt) [listing 1 of 2 here], the values for the half-maximal inhibitory concentration (IC50) in [1] and in [2] were 2700 nM and 170 nM, respectively.
For `CC(C)(Cc1cccc(-n2c(C(N)=O)cc3ccc(OC(F)(F)F)cc32)n1)C(=O)O`, the IC50 on Phospholipase A2 group V is over 10000 nM; in series [1], 3100 nM; in series [2], 320 nM.
For `NC(=O)c1cc2ccc(OC(F)(F)F)cc2n1-c1ccc(CCC(=O)O)o1`, the figures for the IC50 (at Phospholipase A2 group V; in [1]; in [2]) were 5900 nM, 1900 nM and 430 nM, respectively.
Consider `C[C@H](CC(=O)O)c1cccc(-n2c(C(N)=O)cc3ccc(OC(F)(F)F)cc32)c1`, for which the figures for the IC50 (on Phospholipase A2 group V; in [1]; in series [2]) were 8600 nM, 3900 nM and 200 nM, respectively.
Consider `COC(Cc1cccc(-n2c(C(N)=O)cc3ccc(OC(F)(F)F)cc32)c1)C(=O)O` (stereo in doubt; 11), for which the IC50 was found to be 2100 nM on Phospholipase A2 group V, 140 nM in series [3], 140 nM in series [1] and 39 nM in [2].
In the case of `CC(Cc1ccnc(-n2c(C(N)=O)cc3ccc(OC(F)(F)F)cc32)c1)C(=O)O` (stereo in doubt; 13), the IC50 amounted to 180 nM on Phospholipase A2 group V, 830 nM in series [3], 44 nM in series [1] and 140 nM in [2].
The corresponding values for `CC(Cc1ccnc(-n2c(C(N)=O)cc3ccc(OC(F)(F)F)cc32)c1)C(=O)O` (stereo in doubt) are 1600 nM, 3400 nM, 340 nM and 360 nM.
Regarding `COC(Cc1cccc(-n2c(C(N)=O)cc3ccc(OC(F)(F)F)cc32)c1)C(=O)O` (stereo in doubt) [listing 2 of 2 here], the inhibition entry in [4] was “inactive”.
By logD is commonly meant the decadic logarithm of the distribution of all forms, ionised or not, between an organic phase and buffer at a given pH. On to `C[C@@H](CC(=O)O)c1cccc(-n2c(C(N)=O)cc3ccc(OC(F)(F)F)cc32)c1`, for which the IC50 at Phospholipase A2 group V was 5100 nM; in series [3], 110 nM; in series [1], 820 nM; in [2], 15 nM. The Ratio IC50 in the series listed under Homo sapiens [5] amounted to 360; in the series filed under Homo sapiens [6], 60. Also, in the series with Mus musculus, the CL free was found to be 1025 mL/min/kg. Further, the logD in [7] stood at 1.3.
Turning to `NC(=O)c1cc2ccc(OC(F)(F)F)cc2n1-c1ccn(CCC(=O)O)n1`, the inhibition result in series [4] was “inactive”. The IC50 is 4000 nM in series [1] and 4800 nM in series [2].
Take `CCC(Cc1cccc(-n2c(C(N)=O)cc3ccc(OC(F)(F)F)cc32)n1)C(=O)O` (stereo in doubt; 15): the IC50 on Phospholipase A2 group V was 1900 nM; in [3], 330 nM; in series [1], 170 nM; in series [2] it was 170 nM.
On to `NC(=O)c1cc2ccc(OC(F)(F)F)cc2n1-c1cccc(CCC(=O)O)c1`, for which the IC50 in series [3] amounted to 310 nM. Further, in [8], the hepatocyte CLint was found to be 9.33 µL/min/1e6 cells. The CL free with Mus musculus turned out to be 1446 mL/min/kg.
For the molecule `CC(Cc1cccc(-n2c(C(N)=O)cc3ccc(OC(F)(F)F)cc32)n1)C(=O)O` (stereo in doubt), the half-maximal inhibitory concentration (IC50) is over 10000 nM at Phospholipase A2 group V, 1700 nM in [1] and 570 nM in series [2].
In the case of `NC(=O)c1cc2ccc(OC(F)(F)F)cc2n1-c1ccnc(CCC(=O)O)c1`, the IC50 at Phospholipase A2 group V amounted to 2100 nM; in series [3], 1600 nM; in series [1] it was 1200 nM; in series [2] it was 240 nM. Moreover, the hepatocyte CLint in [8] was under 5 µL/min/1e6 cells.
As for `NC(=O)c1cc2ccc(OC(F)(F)F)cc2n1-c1cnn(CCC(=O)O)c1`, the figures for the half-maximal inhibitory concentration (IC50) (at Phospholipase A2 group V; in [1]; in [2]) were 2700 nM, 4500 nM and over 10000 nM, respectively.
Turning to `CC(Cc1cccc(-n2c(C(N)=O)cc3ccc(OC(F)(F)F)cc32)c1)C(=O)O` (stereo in doubt; 10), the IC50 at Phospholipase A2 group V stood at 510 nM; in [3], 350 nM; in [1] it was 57 nM; in [2], 32 nM.
As to `NC(=O)c1cc2ccc(OC(F)(F)F)cc2n1-c1cccc(CCC(=O)O)n1`, the IC50 was 2300 nM on Phospholipase A2 group V, 250 nM in series [3], 470 nM in series [1] and 29 nM in [2]. Moreover, the hepatocyte CLint in [8] was under 5 µL/min/1e6 cells.
Regarding `CC(Cc1cccc(-n2c(C(N)=O)cc3ccc(OC(F)(F)F)cc32)c1)C(=O)O` (stereo in doubt), the IC50 at Phospholipase A2 group V was over 10000 nM; in [3] it was 2800 nM; in series [1], 810 nM; in [2] it was 100 nM.
The corresponding values for `CC(Cc1cccc(-n2c(C(N)=O)cc3ccc(OC(F)(F)F)cc32)n1)C(=O)O` (stereo in doubt; 14) are 510 nM, 250 nM, 92 nM and 65 nM.
As for `NC(=O)c1cc2ccc(OC(F)(F)F)cc2n1-c1cc(CCC(=O)O)ccn1`, the IC50 at Phospholipase A2 group V was found to be 720 nM; in series [3], 640 nM; in series [1], 290 nM; in [2], 110 nM. Further, in series [8], the hepatocyte CLint is under 5 µL/min/1e6 cells.
On to `CC(CC(=O)O)c1cccc(-n2c(C(N)=O)cc3ccc(OC(F)(F)F)cc32)n1` (single isomer, unassigned; (+)) [listing 1 of 2 here], for which the results for the half-inhibitory concentration (IC50) in series [1] and in [2] were 3800 nM and 500 nM, respectively.
For `CC(CC(=O)O)c1cccc(-n2c(C(N)=O)cc3ccc(OC(F)(F)F)cc32)n1` (single isomer, unassigned; (+)) [listing 2 of 2 here], in series [4], the inhibition entry is “inactive”.
For the molecule `CCC(Cc1cccc(-n2c(C(N)=O)cc3ccc(OC(F)(F)F)cc32)n1)C(=O)O` (stereo in doubt), the IC50 was over 10000 nM on Phospholipase A2 group V, 840 nM in series [1] and 940 nM in series [2].
